Assay results: patent US20230026232A1, “AHR INHIBITORS AND USES THEREOF” (Ikena Oncology, Inc., priority 2019, published 2023)

Key:
[1] = test system: other receptors, transporters, and kinases; test: Selectivity for AHR over other receptors, transporters, and kinases
Description: (§1) Compound A is a selective AHR antagonist being developed as an orally administered therapeutic. […] Compound A inhibits CYP1A1 and interleukin (IL)-22 gene expression and leads to an increase in pro-inflammatory cytokines, such as IL-2 and IL-9.

[2] = molecular target: T1, AHR (Homo sapiens, UniProt P35869); test: HepG2 DRE-Luc reporter assay, VAF347-stimulated luciferase expression; format: cell-based; design: endogenous in cells; host or cells: HepG2 DRE-Luc reporter cell line; settings: 80 nM VAF347, n=2
T1 sequence (P35869 11-848): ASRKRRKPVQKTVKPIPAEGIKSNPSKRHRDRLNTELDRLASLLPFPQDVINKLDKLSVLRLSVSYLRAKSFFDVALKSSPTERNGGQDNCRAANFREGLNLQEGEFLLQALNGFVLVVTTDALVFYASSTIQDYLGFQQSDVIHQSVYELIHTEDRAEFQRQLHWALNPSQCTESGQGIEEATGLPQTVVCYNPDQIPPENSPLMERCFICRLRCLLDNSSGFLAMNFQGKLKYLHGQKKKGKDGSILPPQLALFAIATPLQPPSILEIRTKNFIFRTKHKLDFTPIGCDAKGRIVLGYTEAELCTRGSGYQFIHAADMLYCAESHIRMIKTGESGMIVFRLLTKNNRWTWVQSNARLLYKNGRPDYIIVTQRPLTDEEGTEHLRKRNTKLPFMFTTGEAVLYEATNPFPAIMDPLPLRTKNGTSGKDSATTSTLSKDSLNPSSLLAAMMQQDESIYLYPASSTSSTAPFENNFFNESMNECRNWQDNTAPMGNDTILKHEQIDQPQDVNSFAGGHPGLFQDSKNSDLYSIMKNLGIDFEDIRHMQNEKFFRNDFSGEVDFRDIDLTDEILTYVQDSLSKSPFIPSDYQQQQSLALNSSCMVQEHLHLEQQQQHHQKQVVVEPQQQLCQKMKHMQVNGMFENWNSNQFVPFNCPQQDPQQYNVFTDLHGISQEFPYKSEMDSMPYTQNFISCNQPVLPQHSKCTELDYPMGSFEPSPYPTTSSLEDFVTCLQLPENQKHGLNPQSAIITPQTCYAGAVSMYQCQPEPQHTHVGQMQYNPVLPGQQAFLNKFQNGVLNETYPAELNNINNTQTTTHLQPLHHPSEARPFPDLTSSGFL
Description: In vitro experiments were conducted to examine the inhibitory activity of Compound A for AHR-mediated transcriptional activation in the HepG2 DRE-Luc reporter cell line. This human hepatoma cell line stably expresses a luciferase reporter gene under control of AHR-responsive DRE enhancer elements (Han, 2004). HepG2 DRE-Luc reporter cells were treated with 80 nM VAF347 to activate AHR.
The inhibitory activity of the human Compound A metabolites, Compound B and Compound C was also determined in the HepG2 DRE-Luc cell line. Reporter cells were stimulated with 80 nM VAF347 and each metabolite at multiple concentrations.

[3] = molecular target: T1, AHR; test: CYP1A1 expression in CD3/CD28 activated human T cells (qRT-PCR); format: cell-based; design: endogenous in cells; settings: 24 hours
Description: AHR plays a key role in immune cells and its' inhibition is proposed to reverse immune suppression and activate T cells. The ability of Compound A to inhibit AHR-dependent CYP1A1 expression and cytokine production was assessed in primary human T cells. AHR directly regulates the expression of the immune suppressive cytokine IL-22. Human T cells isolated from healthy donor PBMCs were activated with CD3/CD28 tetramer and incubated for 24 hours with Compound A. Cell pellets were processed for RNA isolation and CYP1A1 analysis by quantitative reverse-transcriptase polymerase chain reaction. For the cytokine analysis assay, CD3/CD28 activated T cells were treated with Compound A, and culture supernatants were collected after 48 hours for analysis of IL-22 levels using Meso Scale Discovery V-plex IL-22 plates. Compound A inhibited AHR-dependent gene expression in activated human T cells by decreasing expression of CYP1A1 in a concentration-dependent manner.

[4] = test system: AHR; test: AHR activity in human and rodent cell lines (summary); format: cell-based
Description: as §1

[5] = Nonclinical safety studies incl. 28-day GLP study in monkeys; format: in vivo
Description: The nonclinical safety of Compound A has been evaluated in a series of pharmacological, single-dose and repeated-dose toxicological studies in rodent and non-rodent species including 28-day Good Laboratory Practice (GLP) studies in rat and monkeys. […] All changes were resolved or resolving after 2 weeks of dosing cessation, except for the testicular changes in rats. The nonclinical safety assessment from these studies supports clinical evaluation of Compound A in humans. The initial planned dose of Compound A for this study is 200 mg once daily (QD), based on evaluation of the Compound A nonclinical safety data.
During dose escalation, a minimum of 3 patients are required at each dose. Depending on accrual rate and occurrence of DLTs, 3, 4, 5, or 6 patients may be enrolled at each new dose until the last of those patients completes the 21-day DLT assessment period. Based on the mTPI-2 design, the number of patients who are enrolled at a dose but are not yet fully evaluable for DLT assessment may not exceed the number of remaining patients who are at risk of developing a DLT before the dose would be considered unacceptably toxic. In general, 3 to 14 patients can be enrolled at a given dose level. Administration of Compound A to the first 2 patients in each new dose cohort is staggered by a minimum of 15 hours.

[6] = molecular target: T1, AHR; test: CYP1B1 gene expression in human whole blood ex vivo, basal and L-kynurenine-induced; format: cell-based; design: endogenous in cells; settings: Compound A concentrations >0.5 μM, basal and 20 μM L-kynurenine activated, 24 hours, 2 donors
Description: To further examine the effects of Compound A on basal and ligand-activated AHR-dependent gene expression in human immune cells, blood samples from 2 healthy human donors were exposed ex vivo to Compound A in the presence or absence of 20 μM L-kynurenine to activate AHR. After 24 hours, cells were evaluated for CYP1B1 gene expression. In whole blood samples without AHR activation, basal levels of CYP1B1 expression were inhibited by Compound A treatment in both donors (FIG. 30A). […] In both donors, Compound A concentrations >0.5 μM inhibited CYP1B1 gene expression by greater than 50% under basal and ligand activated conditions.

**Q.** Which “selectivity for AHR over other receptors, transporters, and kinases” value [1] does the source give for CC(C)c1cnn2c(N[C@@H]3CCc4[nH]c5ccccc5c4C3)nc(-c3cncc(F)c3)nc12 [Compound A, (R)—N-(2-(5-fluoropyridin-3-yl)-8-isopropylpyrazolo[1,5-a][1,3,5]triazin-4-yl)-2,3,4,9-tetrahydro-1H-carbazol-3-amine] here?
**A.** highly selective

**Q.** And the IC50 [2]?
**A.** 0.091 µM

**Q.** And the IC50 [3]?
**A.** 0.063 µM

**Q.** What about the IC50 [4] of the same compound?
**A.** 0.035 to 0.15 µM

**Q.** What about the “noteworthy findings in nonclinical safety studies” value ([5]; monkey) of the same compound?
**A.** decreased thymus weights and cortical lymphocytes

**Q.** And the AUC ([5]; monkey, primates, plasma, read-out: AUC where QTc increases are noted)?
**A.** 188 µg·h/mL

**Q.** And the Cmax ([5]; monkey, primates, plasma, read-out: Cmax where QTc increases are noted)?
**A.** 11200 ng/mL

**Q.** And the QTc prolongation ([5]; monkeys)?
**A.** up to 11%

**Q.** What about the “inhibition of CYP1B1 gene expression” value [6] of the same compound?
**A.** greater than 50%
